Experimental data as given in US20230348516A1, “YKL-40 INHIBITORS AND THEIR THERAPEUTIC APPLICATIONS” (Molecure S.A., priority 2022, published 2023).

Molecular target: YKL-40 and asialofetuin interaction (Homo sapiens, UniProt P36222)
Experiment: Orthogonal YKL-40 AlphaScreen assay using biotinylated asialofetuin (AF-biot)
Format: binding

Sequence of YKL-40 and asialofetuin interaction (P36222 22-383): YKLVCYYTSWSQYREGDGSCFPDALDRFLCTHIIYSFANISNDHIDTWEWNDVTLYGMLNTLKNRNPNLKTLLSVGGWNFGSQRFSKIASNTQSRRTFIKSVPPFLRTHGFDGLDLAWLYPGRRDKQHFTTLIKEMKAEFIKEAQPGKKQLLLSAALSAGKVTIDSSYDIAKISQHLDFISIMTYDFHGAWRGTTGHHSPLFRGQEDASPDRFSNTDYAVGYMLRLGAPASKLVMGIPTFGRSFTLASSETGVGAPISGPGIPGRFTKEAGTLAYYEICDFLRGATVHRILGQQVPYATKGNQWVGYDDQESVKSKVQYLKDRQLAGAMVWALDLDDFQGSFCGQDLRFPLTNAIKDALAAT

| IC50 | interference with YKL-40 and asialofetuin (triantennary LacNac) interaction | Compound |
| --- | --- | --- |
| 20 nM |  | Cc1cc(C2CCC(N3C[C@H](C(=O)O)OC[C@@H]3Cc3ccc(Cl)cc3)CC2)nn1C.O=C(O)C(F)(F)F (single isomer, unassigned) [Example 11, 2,2,2-trifluoroacetate] |
|  | 64% | Cc1cc(C2CCC(N3C[C@H](C(=O)O)OC[C@@H]3Cc3ccc(Cl)cc3)CC2)nn1C.O=C(O)C(F)(F)F (single isomer, unassigned) [Example 11] |
